# Assay results: US10233195B2, “Anti-fibrotic pyridinones” (InterMune, Inc., priority 2014, dated 2019)
# Test system: TGF-b induced Endothelin-1 production
# Experiment: ET-1 assay: inhibitory effect on TGF-b induced endothelin-1 production
# Format: cell-based
# Conditions: Homo sapiens, Fibroblast; fibroblasts, stimulant (TGFb, serum, LPA etc), ET-1 in media by ELISA, 4-parameter fit
# Method: Assay of Inhibitory Effect on TGF-b Induced Endothelin-1 Production
# Fibroblasts (primary human lung and dermal, HFL-1, 3T3 etc) are seeded in 96-well plates at ˜15000 cells/well and serum starved for 0-48 hours. After media exchange, compounds serially diluted in DMSO are added to the cells. After a brief incubation of ˜30 min, stimulants (TGFb, serum, LPA etc) are added followed by further incubation for 16-48 hours. Media is then harvested and stored frozen in plate format for later endothelin-1 (ET-1) determination by ELISA. Toxicity measurements are made using the ATPlite kit (Perkin-Elmer). ET-1 is quantified using an ELISA kit (R&D Systems). The amount of ET-1 produced in the assay wells are back-calculated using the ELISA standard. The ability of a compound to inhibit ET-1 production is typically analyzed by fitting dose-response curves to a 4-parameter logistic function to obtain an EC50 value. A measure of cytotoxicity (CC50) is likewise reported from the same experiment using the ATPlite data.
# Compounds of some embodiments were prepared according to synthetic methods described herein and assay data obtained for EC50 against ET-1. The assay data obtained is presented in Table 2, in which A=less than 50 μM, B=greater than or equal to 50 μM and less than or equal to 200 μM; and C=greater than 200 μM.
row,Compound,EC50 [µM]
1,COc1ccc(CN(C)c2cc(=O)n(-c3ccc(OC(F)(F)F)cc3)cc2-c2cnn(C)c2)cc1 [Compound 135],50 to 200
2,CCOC(=O)Nc1cc(=O)n(-c2ccc(OC(F)(F)F)cc2)cc1-c1cnn(C)c1 [Compound 137],> 200
3,COC(=O)Nc1cc(=O)n(-c2ccc(OC(F)(F)F)cc2)cc1-c1cnn(C)c1 [Compound 138],> 200
4,CC(C)OC(=O)Nc1cc(=O)n(-c2ccc(OC(F)(F)F)cc2)cc1-c1cnn(C)c1 [Compound 139],> 200
5,CC(=O)Nc1cc(=O)n(-c2ccc(OC(F)(F)F)cc2)cc1-c1cnn(C)c1 [Compound 141],> 200
6,Cn1cc(-c2cn(-c3ccc(OC(F)(F)F)cc3)c(=O)cc2OCc2ccccc2)cn1 [Compound 143],> 200
7,COCCOc1cc(=O)n(-c2ccc(OC(F)(F)F)cc2)cc1-c1cnn(C)c1 [Compound 144],> 200
8,Cn1cc(-c2cn(-c3ccc(OC(F)(F)F)cc3)c(=O)cc2OCCN2CCCC2)cn1 [Compound 145],50 to 200
9,Cn1cc(-c2cn(-c3ccc(OC(F)(F)F)cc3)c(=O)cc2OCCN2CCCC2=O)cn1 [Compound 146],> 200
10,Cn1cc(-c2cn(-c3ccc(OC(F)(F)F)cc3)c(=O)cc2OCCN2CCOCC2)cn1 [Compound 147],> 200
11,Cn1cc(-c2cn(-c3ccc(OC(F)(F)F)cc3)c(=O)cc2OCCN2CCS(=O)(=O)CC2)cn1 [Compound 148],> 200
12,Cn1cc(-c2cn(-c3ccc(OC(F)(F)F)cc3)c(=O)cc2OC2CCS(=O)(=O)CC2)cn1 [Compound 149],50 to 200
13,Cn1cc(-c2cn(-c3ccc(OC(F)(F)F)cc3)c(=O)cc2OCCN2CCOCC2=O)cn1 [Compound 150],50 to 200
14,CN1CCC(Oc2cc(=O)n(-c3ccc(OC(F)(F)F)cc3)cc2-c2cnn(C)c2)CC1 [Compound 151],< 50
15,CN1CCN(CCOc2cc(=O)n(-c3ccc(OC(F)(F)F)cc3)cc2-c2cnn(C)c2)CC1 [Compound 152],50 to 200
16,CCOc1ccc(Oc2cc(=O)n(-c3ccc(OC(F)(F)F)cc3)cc2-c2cnn(C)c2)cc1C [Compound 154],> 200
17,Cn1cc(-c2cn(-c3ccc(OC(F)(F)F)cc3)c(=O)cc2Oc2cc(Cl)cc(C#N)c2)cn1 [Compound 156],> 200
18,Cn1cc(-c2cn(-c3ccc(OC(F)(F)F)cc3)c(=O)cc2C(=O)O)cn1 [Compound 158],> 200
19,CCCNC(=O)c1cc(=O)n(-c2ccc(OC(F)(F)F)cc2)cc1-c1cnn(C)c1 [Compound 159],> 200
20,Cc1cc(=O)n(-c2cccc(C(F)(F)F)c2)cc1-c1ccccc1 [Compound 163],< 50
21,Cc1cc(=O)n(-c2ccc(OC(F)(F)F)cc2)cc1-c1ccccc1 [Compound 164],< 50
22,Cc1cc(=O)n(-c2ccccc2)cc1-c1ccccc1 [Compound 165],50 to 200
23,Cc1cc(=O)n(-c2cccc(OC(F)(F)F)c2)cc1-c1ccccc1 [Compound 166],< 50
24,CC(=O)Nc1cccc(-n2cc(-c3ccccc3)c(C)cc2=O)c1 [Compound 167],> 200
25,CCOc1ccc(-n2cc(-c3ccccc3)c(C)cc2=O)c(C)c1 [Compound 168],50 to 200
26,Cc1cc(=O)n(-c2ccc(Cl)cc2C)cc1-c1ccccc1 [Compound 169],50 to 200
27,Cc1cc(=O)n(-c2ccc(C(F)(F)F)cc2C)cc1-c1ccccc1 [Compound 170],< 50

row,Compound,EC50 [µM]
1,Cc1cc(=O)n(-c2ccccc2F)cc1-c1ccccc1 [Compound 171],50 to 200
2,CC(=O)Nc1cccc(-n2cc(-c3ccc(F)cc3)c(C)cc2=O)c1 [Compound 172],> 200
3,Cc1cc(=O)n(-c2ccc(C(F)(F)F)cc2)cc1-c1ccc(F)cc1 [Compound 173],> 200
4,Cc1cc(=O)n(-c2cccc(OC(F)(F)F)c2)cc1-c1ccc(F)cc1 [Compound 174],< 50
5,Cc1cc(=O)n(-c2ccccc2)cc1-c1ccc(F)cc1 [Compound 176],50 to 200
6,Cc1cc(=O)n(-c2cccc(C(F)(F)F)c2)cc1-c1ccc(F)cc1 [Compound 177],50 to 200
7,Cc1cc(=O)n(-c2ccccc2F)cc1-c1ccc(F)cc1 [Compound 178],50 to 200
8,Cc1cc(=O)n(-c2ccc(Cl)cc2)cc1-c1ccc(F)cc1 [Compound 181],> 200
9,Cc1cc(=O)n(-c2ccc3c(c2)OCCO3)cc1-c1ccc(F)cc1 [Compound 182],> 200
10,Cc1cc(=O)n(-c2ccc3c(c2)OCO3)cc1-c1ccc(F)cc1 [Compound 183],> 200
11,Cc1cc(=O)n(-c2ccc(OC(F)(F)F)cc2C)cc1-c1ccc(F)cc1 [Compound 186],< 50
12,Cc1cc(=O)n(-c2cccc(N)c2)cc1-c1ccc(F)cc1 [Compound 187],50 to 200
13,CNC(=O)c1cccc(-n2cc(-c3ccc(F)cc3)c(C)cc2=O)c1 [Compound 190],50 to 200
14,Cc1cc(=O)n(-c2ccc(OC(F)(F)F)cc2)cc1-c1cccc(Cl)c1 [Compound 191],50 to 200
15,CCOc1ccc(-n2cc(-c3cccc(F)c3)c(C)cc2=O)c(C)c1 [Compound 193],50 to 200
16,Cc1cc(=O)n(-c2ccc(OC(F)(F)F)cc2)cc1-c1ccccc1F [Compound 194],< 50
17,Cc1cc(=O)n(-c2ccc(OC(F)(F)F)cc2)cc1-c1ccc(Cl)c(Cl)c1 [Compound 197],50 to 200
18,CCc1cc(=O)n(-c2ccc(OC(F)(F)F)cc2)cc1-c1ccc(F)cc1 [Compound 199],50 to 200
19,CC(C)c1cc(=O)n(-c2ccc(OC(F)(F)F)cc2)cc1-c1ccc(F)cc1 [Compound 200],50 to 200
20,O=c1cc(C(F)(F)F)c(-c2ccc(F)cc2)cn1-c1ccc(OC(F)(F)F)cc1 [Compound 205],50 to 200
21,Cc1cc(=O)n(-c2ccc(OC(F)(F)F)cc2)cc1-c1ccc2c(c1)OC(C)(C)O2 [Compound 211],> 200
22,Cc1cc(=O)n(-c2ccc(F)cc2)cc1-c1ccc(OC(F)(F)F)cc1 [Compound 212],50 to 200
23,Cc1cc(=O)n(-c2ccc(OC(F)(F)F)cc2)cc1-c1ccc(F)cc1 [Compound 213],> 200
24,Cc1cc(=O)n(-c2ccccc2C)cc1-c1ccc(F)cc1 [Compound 214],50 to 200
25,CC(=O)Nc1cccc(-n2cc(-c3cn[nH]c3)c(C)cc2=O)c1 [Compound 217],> 200
26,COc1cc(-n2cc(-c3cn[nH]c3)c(C)cc2=O)cc(OC)c1OC [Compound 220],> 200
27,COc1cc(-n2cc(-c3cnn(C)c3)c(C)cc2=O)cc(OC)c1OC [Compound 221],> 200

row,Compound,EC50 [µM]
1,Cc1cc(=O)n(-c2ccc3c(c2)OCCO3)cc1-c1cnn(C)c1 [Compound 222],> 200
2,Cc1cc(=O)n(-c2ccc3c(c2)OCO3)cc1-c1cnn(C)c1 [Compound 223],> 200
3,Cc1cc(=O)n(-c2ccc3ocnc3c2)cc1-c1cnn(C)c1 [Compound 224],> 200
4,Cc1cc(=O)n(-c2ccc3scnc3c2)cc1-c1cnn(C)c1 [Compound 225],> 200
5,Cc1cc(=O)n(-c2cccc(C(F)(F)F)c2)cc1-c1cnn(C)c1 [Compound 226],> 200
6,Cc1cc(=O)n(-c2cccc(OC(F)(F)F)c2)cc1-c1cnn(C)c1 [Compound 227],> 200
7,Cc1cc(=O)n(-c2ccc(C(F)(F)F)cc2)cc1-c1cnn(C)c1 [Compound 228],50 to 200
8,Cc1cc(=O)n(-c2ccccc2F)cc1-c1cnn(C)c1 [Compound 230],> 200
9,Cc1cc(=O)n(-c2cccc3c2OCCO3)cc1-c1cnn(C)c1 [Compound 231],50 to 200
10,Cc1cc(=O)n(-c2cccc3c2OCO3)cc1-c1cnn(C)c1 [Compound 232],> 200
11,Cc1cc(=O)n(-c2ccc3[nH]cnc3c2)cc1-c1cnn(C)c1 [Compound 233],> 200
12,CCc1cc(=O)n(-c2ccc(OC(F)(F)F)cc2)cc1-c1cnn(C)c1 [Compound 235],50 to 200
13,CC(C)c1cc(=O)n(-c2ccc(OC(F)(F)F)cc2)cc1-c1cnn(C)c1 [Compound 236],50 to 200
14,Cn1cc(-c2cn(-c3ccc(OC(F)(F)F)cc3)c(=O)cc2C(F)(F)F)cn1 [Compound 240],> 200
15,Cc1cc(=O)n(-c2ccc(OC(F)(F)F)cc2)cc1-c1cccnc1 [Compound 241],> 200
16,Cc1cc(=O)n(-c2ccc(OC(F)(F)F)cc2)cc1-c1ccncc1 [Compound 242],> 200
17,Cc1cc(=O)n(-c2ccc(OC(F)(F)F)cc2)cc1-n1ccnc1 [Compound 244],> 200
18,Cc1cc(=O)n(-c2ccc(OC(F)(F)F)cc2)cc1-c1ccnn1C [Compound 247],> 200
19,Cc1cc(=O)n(-c2ccc(OC(F)(F)F)cc2)cc1-c1cnc2nccn2c1 [Compound 248],> 200
20,Cc1cc(=O)n(-c2ccc(OC(F)(F)F)cc2)cc1-c1ccc2cn(C)nc2c1 [Compound 250],50 to 200
21,Cc1cc(=O)n(-c2ccc(OC(F)(F)F)cc2)cc1-c1nn[nH]n1 [Compound 253],> 200
22,Cc1cc(=O)n(-c2ccc(OC(F)(F)F)cc2)cc1-c1ccc2c(ccn2C)c1 [Compound 255],> 200
23,Cc1cc(=O)n(-c2ccc(OC(F)(F)F)cc2)cc1-c1nnn(C)n1 [Compound 256],> 200
24,Cc1cc(=O)n(-c2ccc(OC(F)(F)F)cc2)cc1-c1nnnn1C [Compound 257],> 200
25,Cc1cc(=O)n(-c2ccc(OC(F)(F)F)cc2)cc1-c1cnsc1 [Compound 264],> 200
